Laboratory results: patent US20050250137A1, “Molecular targets of cancer and aging” (priority 2002, published 2005)
“Also recorded” adds a separate entry of the source.

What was measured:
[1] = tested on: immortal (high passage) MDAH041 cells
[2] = tested on: normal skin fibroblast cell line 1502 (CRL-1502); test: Q-RT-PCR gene expression, normal fibroblasts 1502 treated or untreated with 5-aza-CdR; assay type: cell-based, human; details: before and after 5azaCdR
immortal MDAH041 cells = test: Western blot protein expression after 5-aza-dC, immortal MDAH041; assay type: cell-based, human; details: for p16^INK4a protein upregulation: 5-aza-CdR-treated vs untreated immortal MDAH041; for p21 protein levels: 5-aza-dC treatment of immortal MDAH041
Description: Twenty μg of cell extract was boiled for 5 minutes in sample buffer, electrophoresed on a 15% SDS-polyacrylamide gel, and transferred to nitrocellulose. […] The anti-mouse IgG was incubated with the blot for 1 hour at room temperature. The signal was detected by enhanced chemiluminescence. […] Louis, Mo.). Lysates were incubated on ice for 30 minutes followed by centrifugation at 10,000×g. Protein was quantitated using the Bradford Reagent (Sigma, St. Louis, Mo.). Equal amounts of protein were electrophoresed in an appropriate percentage SDS-polyacrylamide gel (SDS-PAGE) and transferred to nitrocellulose membranes. The membranes were incubated with antibodies as indicated. […] The western blots were then incubated with a horseradish peroxidase-conjugated secondary and developed using SuperSignal West Pico (Pierce, Rockford, Ill.). As a control, parallel western blots were probed with α-Tubulin.

[3] = tested on: immortal MDAH087 cell lines; test: Senescence phenotype (morphology, senescence-associated β-galactosidase), immortal MDAH087 cell lines; assay type: cell-based, human; details: 5-aza-dC treatment of immortal MDAH087 cell lines
[4] = Western blot, listed as 5AZA-dC
[5] = Western blot, after 5-aza-dC treatment, MDAH041
[6] = Western blot, immortal MDAH041 treated with 5-aza-dC

With `Nc1ncn([C@H]2C[C@H](O)[C@@H](CO)O2)c(=O)n1` [5-aza-dC, 5-aza-2′-deoxycytidine] the “2-5A synthetase induced by interferon OAS-1 expression” value [1] was 76.5 fold, the “2-5 oligoadenylate synthetase 59 kDa OAS-L expression” value [1] was 40.0 fold and the “041 5-aza Ave Signal Log” value [1] was 0.93. For the same compound, the “(2-5′) oligoadenylate synthetase 59 kDa isoform OAS-L expression” value [1] was 40.0 fold, the “ALDH1A3 expression, 5A” value [1] was 2.8 fold and the “ALDH1A3 expression, IM vs 5-aza-dC, MA” value [1] was 2.8 fold. The Adlican expression [1] was 17.6 fold, the “Aldehyde dehydrogenase 6 expression” value [1] was 4.1 fold and the “Aortic carboxypeptidase-like protein expression” value [1] was 12.3 fold. The “Associated molecule with the SH3 domain of STAM expression” value [1] was 7.6 fold, the “B2-bradykinin receptor, 3 expression” value [1] was 3.8 fold and the “B94 protein (tumor necrosis factor-alpha-inducible) expression” value [1] was 5.5 fold. For the same compound, the “BAC clone RG118D07 from 7q31 expression” value [1] was 5.5 fold, the “BST-2 (bone marrow stroma cell surface gene) expression” value [1] was 38.7 fold and the Beta-thromboglobin-like protein expression [1] was 17.5 fold. For the same compound, the “Bone morphogenetic protein 2A expression” value [1] was 9.9 fold, the “CDNA DKFZp564H142 expression” value [1] was 9.5 fold and the “CIG5 (cytomegalovirus induces interferon-responsive) expression” value [1] was 66.6 fold. For the same compound, the CIG5 vipirin expression [1] was 67.0 fold, the “CIG49 (cytomegalovirus induces interferon-responsive) expression” value [1] was 70.2 fold and the “CIG49 Interferon-induced protein with tetratricopepide repeats 4 expression” value [1] was 70.2 fold. The “CLTB expression, 5A” value [1] was 1.5 fold, the “CLTB expression, IM vs 5-aza-dC, MA” value [1] was 1.5 fold and the “CREG expression, 5A” value [1] was 2.2 fold. The “CREG expression, IM vs 5-aza-dC, MA” value [1] was 2.21 fold, the “CYP1B1 expression, 5A” value [1] was 8.2 fold and the “Carbonic anhydrase precursor (CA 12) expression” value [1] was 8.9 fold. The “Complement cytolysis inhibitor (CLI) expression” value [1] was 5.1 fold, the “Complement factor H expression” value [1] was 6.8 fold and the “Cysteine-rich heart protein expression” value [1] was 8.8 fold. The “Cytokine (GRO-beta, GRO-2) expression” value [1] was 29.6 fold, the “Cytokine (GRO-gamma) expression” value [1] was 56.8 fold and the “DUSP6 (dual specificity MAP kinase-phosphatase) expression” value [1] was 4.6 fold. The “Dickkopf-1 (hdkk-1) expression” value [1] was 14.4 fold, the “Dioxin-inducible cytochrome P450 (CYP1B1) expression” value [1] was 6.9 fold and the “Dual-specificity protein phosphatase expression” value [1] was 12.6 fold. The “FLJ14675 expression, 5A” value [1] was 3.8 fold, the “Factor H homologue expression” value [1] was 7.5 fold and the Fibulin-2 expression [1] was 21.8 fold. The “Gamma-interferon-inducible protein (IP-30) expression” value [1] was 31.2 fold, the “Genes for histones H2B.1 and H2A expression” value [1] was 4.3 fold and the Gravin expression [1] was 12.2 fold. The “HEM45 (interferon-stimulated gene, 20-kd; ISG20) expression” value [1] was 50.2 fold, the “HEM45, ISG-20 expression” value [1] was 50.2 fold and the “HLA class I locus C heavy chain expression” value [1] was 5.7 fold. For the same compound, the “HLA-F, gene for major histocompatibility complex class I F expression” value [1] was 29.4 fold, the “HPS5 expression, 5A” value [1] was 1.6 fold and the “HSPA2 expression, 5A” value [1] was 1.6 fold. For the same compound, the “HSPA2 expression, IM vs 5-aza-dC, MA” value [1] was 1.6 fold, the “HTATIP2 expression, 5A” value [1] was 5.6 fold and the “IGFBP3 expression, IM vs 5-aza-dC, MA” value [1] was 2.48 fold. For the same compound, the “IGFBP4 expression, IM vs 5-aza-dC, MA” value [1] was 3.72 fold, the “Inhibitor of apoptosis protein 1 expression” value [1] was 13.1 fold and the “Insulin-like growth factor binding protein 6 expression” value [1] was 5.9 fold. For the same compound, the “Insulin-like growth factor binding protein-4 expression” value [1] was 3.8 fold, the “Integral membrane glycoprotein LIG-1 (TM4SF1) expression” value [1] was 5.2 fold and the “Interferon regulatory factor 7B expression” value [1] was 17.5 fold. For the same compound, the “Interferon, alpha-inducible protein 27 expression” value [1] was 482.0 fold, the “Interferon-induced p78, Mx1 expression” value [1] was 202 fold and the “Interferon-induced p78, MxB expression” value [1] was 122.1 fold. The “Interferon-inducible 56 Kd protein expression” value [1] was 36.6 fold, the “Interferon-inducible 56 kDa protein expression” value [1] was 36.6 fold and the “Interferon-inducible membrane protein 9-27 (IFITM1) expression” value [1] was 8.8 fold. The “Interferon-inducible peptide (6-16) expression” value [1] was 10.2 fold, the “Interferon-inducible protein 9-27 expression” value [1] was 8.8 fold and the “Interferon-inducible protein (Absent in Melanoma 2, AIM2) expression” value [1] was 21.6 fold. For the same compound, the “Interferon-inducible protein AIM2 (absent in melanoma) expression” value [1] was 21.6 fold, the “Interferon-inducible protein Mx1 expression” value [1] was 42 fold and the “Interferon-inducible protein p78, Mx2 expression” value [1] was 202 fold. For the same compound, the “Interferon-stimulated gene p27 mRNA expression” value [1] was 482.0 fold, the “Interleukin 8 expression” value [1] was 92.7 fold and the “K12 protein precursor (SECTM1) expression” value [1] was 19.6 fold. The KIAA0744 protein expression [1] was 8.6 fold, the “KIAA 1077 protein Sulfatase FP expression” value [1] was 10.9 fold and the “KIAA1750 expression, 5A” value [1] was 2.9 fold. The “KIAA1750 expression, IM vs 5-aza-dC, MA” value [1] was 2.88 fold, the “Keratin 18 expression” value [1] was 13.5 fold and the “Ly-6-related protein (9804) gene expression” value [1] was 34.1 fold. For the same compound, the “MAP1LC3B expression, 5A” value [1] was 1.7 fold, the “Major group rhinovirus receptor (HRV) ICAM expression” value [1] was 28.9 fold and the “Major group rhinovirus receptor (HRV) expression” value [1] was 28.9 fold. For the same compound, the “Melanoma growth stimulatory activity (MGSA) (GRO-1) expression” value [1] was 64.6 fold, the “Microphage migration inhibitory factor (MIF) expression” value [1] was 42.1 fold and the “Microtubular protein 44 expression” value [1] was 17.8 fold. The “Microtubular protein p44 (IFI44) expression” value [1] was 17.8 fold, the “NK4 protein (natural killer cell transcript 4) expression” value [1] was 20.2 fold and the “Neurite outgrowth-promoting protein expression” value [1] was 7.1 fold. For the same compound, the “Neuromedin B Precursor expression” value [1] was 5.6 fold, the “Nk4 protein (natural killer cell transcript 4) expression” value [1] was 20.2 fold and the “OPTN expression, 5A” value [1] was 2.6 fold. For the same compound, the “OPTN expression, IM vs 5-aza-dC, MA” value [1] was 2.6 fold, the Optineurin-like protein expression [1] was 4.2 fold and the “PCTAIRE 2 (pctaire protein kinase) expression” value [1] was 19.3 fold. The “Pig 7 expression” value [1] was 9.4 fold, the “Placental protein 5 (PP5) expression” value [1] was 29.3 fold and the “Placental tissue factor (two forms) expression” value [1] was 8.7 fold. The “Putative monocarboxylate transporter expression” value [1] was 6.3 fold, the “Rad (Ras associated with diabetes) expression” value [1] was 19.7 fold and the “Retinoic acid receptor responder 3 expression” value [1] was 7.1 fold. For the same compound, the “SERPINB2 expression, 5A” value [1] was 4.2 fold, the “SERPINB2 expression, IM vs 5-aza-dC, MA” value [1] was 4.2 fold and the “STAT1α expression, IM vs 5-aza-dC, MA” value [1] was 2.92 fold. For the same compound, the “Signal Transducer Activator of Transcription 1 STAT1 91 kDa expression” value [1] was 7.6 fold, the “Similar to gb: L 19779 HISTONE H2A.1 expression” value [1] was 10.3 fold and the “Skin collagenase MMP1 expression” value [1] was 4.8 fold. The “TESTIN 3 testis derived transcript (3 LIM domains) expression” value [1] was 8.1 fold, the “TNF-related apoptosis inducing ligand TRAIL expression” value [1] was 42.2 fold and the “TNF-related apoptosis inducing ligand, TRAIL expression” value [1] was 42.2 fold. For the same compound, the “TNFAIP2 expression, 5A” value [1] was 5.4 fold, the “TNFAIP2 expression, IM vs 5-aza-dC, MA” value [1] was 5.41 fold and the “Tat-interacting protein TIP30 expression” value [1] was 8.9 fold. The “Transcription Factor MAFF expression” value [1] was 8.1 fold, the “Transcription factor ISGF-3 (Stat 1) expression” value [1] was 7.6 fold and the “Transglutaminase (TGase) expression” value [1] was 144.6 fold. The “Tripartite motif-containing protein 14, TRIM14 expression” value [1] was 6.2 fold, the “Tumor antigen (L6) expression” value [1] was 17.5 fold and the “Tumor necrosis factor-inducible (TSG-6) expression” value [1] was 10.3 fold. The “Tyrosine protein kinase (CAK) gene expression” value [1] was 5.7 fold, the “Ubiquitin-conjugating enzyme E2L6 (UBE2L6) expression” value [1] was 5.9 fold and the “VAMP45 (vesicle-associated membrane protein 5) expression” value [1] was 9.1 fold. For the same compound, the “mRNA expressed in osteoblast expression” value [1] was 32.5 fold, the “uPA gene (urokinase-plasminogen activator gene) expression” value [1] was 4.4 fold and the “(2-5′) oligoadenylate synthetase E gene OAS1 expression, 1502 vs. 1502 5aza” value ([2]; ↑ increase) was 2↑ fold. For the same compound, the “CIG49 expression, 1502 vs. 1502 5aza” value ([2]; ↑ increase) was 1.1↑ fold, the “Interferon-induced 17-kDa/15-kDA expression, 1502 vs. 1502 5aza” value ([2]; ↑ increase) was 1.8↑ fold and the “Interferon-inducible protein p78 expression, 1502 vs. 1502 5aza” value ([2]; ↑ increase) was 1.8↑ fold. The “Interferon-regulatory factor 7B expression, 1502 vs. 1502 5aza” value ([2]; ↑ increase) was 1.5↑ fold, the “STAT 1, 91 kD expression, 1502 vs. 1502 5aza” value ([2]; ↑ increase) was 1.8↑ fold and the “Interferon-inducible 56 kDa protein expression, 1502 vs. 1502 5aza” value ([2]; ↓ decrease) was 1.2↓ fold. The “Interferon-inducible membrane protein 9-27 (IFITM1) expression, 1502 vs. 1502 5aza” value ([2]; ↓ decrease) was 1.8↓ fold, the “MGSF expression, 1502 vs. 1502 5aza” value ([2]; ↓ decrease) was 3.2↓ fold and the “MIF expression, 1502 vs. 1502 5aza” value ([2]; ↓ decrease) was 1.7↓ fold. The “NDN expression, 1502 vs. 1502 5aza” value ([2]; ↓ decrease) was 1.4↓ fold, the “p16^INK4a protein upregulation” value (immortal MDAH041 cells; Western blot, listed as 5-aza-CdR) was “over 500 fold” and the “p16^INK4a protein upregulation” value (immortal MDAH041 cells; [4]) was “approximately 500 fold”. For the same compound, the p21 protein levels (immortal MDAH041 cells; Western blot) was “protein expression of both was induced”, the p21 protein levels (immortal MDAH041 cells; [4]) was “not regulated” and the IGFBP4 protein (immortal MDAH041 cells; [5]) was “slight induction; also recorded: little to no induction”. The IGFBPrP1 protein (immortal MDAH041 cells; [5]) was “little to no induction”, the “p16^INK4a protein expression” value (immortal MDAH041 cells; [6]) was “protein expression of both was induced” and the “protein levels of STAT1α” value (immortal MDAH041 cells; [6]) was “increased in response to treatment”. For the same compound, the IGFBP3 protein levels (immortal MDAH041 cells; Western blot, response to 5-aza-dC, MDAH041) was “increased in response to 5-aza-dC”, the STAT1 protein upregulation (immortal MDAH041 cells; immortal cells, 5AZA-dC treatment) was 4.7 fold and the “senescent phenotype of treated cells” value [3] was “resulted in a flat senescence-like morphology and the activation of the senescence-associated β-galactosidase activity”.
